Data published in publication PMC3742231 (International Journal of Molecular Sciences, 2013).

Legend:
[1] = molecular target: T1, CYP2C8 (Homo sapiens, UniProt P10632); test: N-in-one CYP inhibition assay in human liver microsomes; type of inhibition
T1 sequence (P10632 1-490): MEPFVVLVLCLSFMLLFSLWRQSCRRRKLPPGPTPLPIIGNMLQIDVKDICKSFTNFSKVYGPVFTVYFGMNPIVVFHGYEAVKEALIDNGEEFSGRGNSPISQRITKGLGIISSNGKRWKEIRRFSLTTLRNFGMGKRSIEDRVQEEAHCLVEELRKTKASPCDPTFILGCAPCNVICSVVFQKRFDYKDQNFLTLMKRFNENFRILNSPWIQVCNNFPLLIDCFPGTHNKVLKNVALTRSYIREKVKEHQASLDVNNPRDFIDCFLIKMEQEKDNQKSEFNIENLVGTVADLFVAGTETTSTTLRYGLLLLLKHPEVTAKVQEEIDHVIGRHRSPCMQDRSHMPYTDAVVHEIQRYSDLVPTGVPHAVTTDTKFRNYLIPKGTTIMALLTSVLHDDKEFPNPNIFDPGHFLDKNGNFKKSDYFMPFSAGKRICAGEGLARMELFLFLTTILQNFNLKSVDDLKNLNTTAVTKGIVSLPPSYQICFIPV
Method: (§1) Human liver microsomes were prepared and pooled from ten human livers (HL20–24,28–32) as previously described. Human liver samples were obtained from the University Hospital of Oulu as surplus tissue from cadaver kidney transplant donors. The collection of surplus tissue was approved by the Ethics Committee of the Medical Faculty of the University of Oulu, Finland. All donors were Caucasians ranging in age from 21 to 62 years; four were female and six were male. Detailed information on each donor has been published previously. Protein concentrations were measured using the Bradford method.
(§2) In vitro inhibition of CYP isoforms was first assessed using the N-in-one approach (also called the cocktail approach). CYP-selective substrates and reactions are listed in Table 1; concentrations were roughly at or below the respective Michaelis-Menten coefficients. […] A Micromass LCT time-of-flight high-resolution mass spectrometer (Micromass Ltd., Manchester, UK) equipped with a Z-spray electrospray ionization source was used for the monitoring of CYP-selective reactions. Integrated mass chromatogram peak areas were normalized versus internal standards before comparing metabolites in different preparations. More details of the assay are available in previous publications.
(§3) Dixon, Lineweaver-Burk, Hanes, and Hofstee plots were used for the analysis of the type of inhibition.

[2] = molecular target: CYP2D6 (Homo sapiens, UniProt P10635); test: as above
Method: as §1, §2, §3

[3] = test system: CYP2B6; details: 20 μM, 48 h
Method: Freshly isolated human hepatocytes were obtained from the UK Human Tissue Bank (Leicester, UK).
Omeprazole (CYP1A2 inducer; 30 μM), phenobarbital (CYP2B6 inducer; 1 mM) and rifampicin (CYP2C9, CYP2C19, and CYP3A4 inducer; 50 μM) dissolved in dimethyl sulfoxide (0.5% v/v final), served as reference inducers.

[4] = Overall safety in the three clinical studies; format: in vivo, human; details: healthy postmenopausal women, with and without ospemifene
Source text: All experiments with human subjects were based on voluntary informed consent and the clinical study protocols had appropriate ethical and regulatory approval. Subjects were asked to immediately report any significant adverse events (AEs) that occurred during the study; minor AEs were reported at clinic visits. AEs were coded and classified according to the Medical Dictionary for Regulatory Activities.

Chain of CYP2D6 (P10635 whole entry): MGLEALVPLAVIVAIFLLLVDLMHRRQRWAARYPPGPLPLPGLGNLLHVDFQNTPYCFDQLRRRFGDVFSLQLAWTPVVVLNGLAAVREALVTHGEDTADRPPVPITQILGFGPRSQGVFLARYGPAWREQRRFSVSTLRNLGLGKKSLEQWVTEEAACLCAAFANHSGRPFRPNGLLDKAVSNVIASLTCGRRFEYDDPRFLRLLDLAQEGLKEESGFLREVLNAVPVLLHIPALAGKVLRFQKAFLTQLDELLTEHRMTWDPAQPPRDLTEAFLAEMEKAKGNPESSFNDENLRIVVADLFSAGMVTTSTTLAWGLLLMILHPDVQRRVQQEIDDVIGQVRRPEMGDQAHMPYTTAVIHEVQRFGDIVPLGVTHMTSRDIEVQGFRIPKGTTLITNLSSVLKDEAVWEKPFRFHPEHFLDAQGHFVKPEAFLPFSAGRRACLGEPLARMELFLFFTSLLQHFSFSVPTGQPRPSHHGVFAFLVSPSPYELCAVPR

Question: With `OCCOc1ccc(/C(=C(/CCCl)c2ccccc2)c2ccccc2)cc1` [Ospemifene] as the compound, how does the IC50 [1] read?
Answer: 36.4 µM

Question: And the Type of inhibition ([1]; results not shown)?
Answer: likely competitive

Question: What about the IC50 [2] of the same compound?
Answer: 48.7 µM

Question: What about the Type of inhibition ([2]; results not shown) of the same compound?
Answer: competitive

Question: What about the “Induction of CYP2B6 activity” value [3] of the same compound?
Answer: approximately two-fold

Question: And the Tolerability [4]?
Answer: well tolerated
